Assay results as given in patent publication US20220206003A1, “BIOMARKERS FOR PREDICTING RESISTANCE TO CANCER DRUGS” (INSTITUT CURIE, priority 2019, published 2022).
Where two headings read alike, the source gives them in different places.

Experiments:
[1] = test system: HBCx-95 xenografts (triple negative breast cancer PDX); assay: Capecitabine treatment of HBCx-95 patient-derived xenografts (relative tumor volume, response); format: in vivo, Swiss nude mice; conditions: HBCx-95 xenograft, mouse #40, oral 540 mg/kg/day, second round after recurrence
Description: Female Swiss nude mice were purchased from Charles River Laboratories and maintained under specific pathogen-free conditions. Their care and housing were in accordance with institutional guidelines and the rules of the French Ethics Committee (project authorization no. 02163.02). A PDX model of luminal breast cancer (HBCx-22) was previously established at Institut Curie from untreated early-stage luminal breast cancer with informed consent from the patient. Acquisition of a resistant phenotype for a derivative of HBCx-22, HBCx-22-TamR, was previously established and maintained. A PDX from a residual triple negative breast cancer post neo-adjuvant chemotherapy (HBCx-95) was previously established at Institut Curie with informed consent from the patient. HBCx-95 xenografts (n=6) were treated with Capecitabine (Xeloda, Roche Laboratories) orally at a dose of 540 mg/kg/day, 5 days a week for 6 weeks. Relative tumor volumes (RTV, mm3) were calculated. Mice with recurrent tumors were treated for a second round of Capecitabine when PDX reached a volume of over 200 mm^3 (mice #35, #40 & #33).

[2] = test system: HBCx-22 / HBCx-22-TamR luminal ER+ breast PDX; conditions: cited from earlier work

## CCCCCOC(=O)Nc1nc(=O)n([C@@H]2O[C@H](C)[C@@H](O)[C@H]2O)cc1F [Capecitabine]
[1]
  response of recurrent PDX tumor to a second round of Capecitabine: did not respond

## CC/C(=C(\c1ccccc1)c1ccc(OCCN(C)C)cc1)c1ccccc1 [Tamoxifen]
[2]; HBCx-22-TamR tumor derivative, previously characterized
  response of PDX to Tamoxifen: acquired resistance
[2]; HBCx-22 luminal ER+ breast PDX
  response of PDX to Tamoxifen: responsive
